Reference: publication PMC5766609 (Scientific Reports, 2018)
Residues, ends and D or L forms follow the SMILES beside them.

Assays:
[1] = molecular target: T1, human GLP-1 receptor (GLP1R) (Homo sapiens, UniProt P43220); assay: cAMP assay on CHO-JumpIn cells stably transfected with human GLP-1 receptor (HitHunter cAMP); format: cell-based; settings: Table 2, cAMP accumulation, buffer PBS, 0.1% BSA, 100 μM RO 20-1724, 20% serum, 1 hr at RT, value ± spread, read-out: EC50 GLP1R;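 also: peptides tested as 4-fold serial dilution series, cells exposed 1 hr at RT in the dark, cAMP quantified against a cAMP standard calibration curve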
T1 construct: expressed in transfected cells; host or cells: CHO-JumpIn cells, stably transfected
T1 sequence (P43220 24-463): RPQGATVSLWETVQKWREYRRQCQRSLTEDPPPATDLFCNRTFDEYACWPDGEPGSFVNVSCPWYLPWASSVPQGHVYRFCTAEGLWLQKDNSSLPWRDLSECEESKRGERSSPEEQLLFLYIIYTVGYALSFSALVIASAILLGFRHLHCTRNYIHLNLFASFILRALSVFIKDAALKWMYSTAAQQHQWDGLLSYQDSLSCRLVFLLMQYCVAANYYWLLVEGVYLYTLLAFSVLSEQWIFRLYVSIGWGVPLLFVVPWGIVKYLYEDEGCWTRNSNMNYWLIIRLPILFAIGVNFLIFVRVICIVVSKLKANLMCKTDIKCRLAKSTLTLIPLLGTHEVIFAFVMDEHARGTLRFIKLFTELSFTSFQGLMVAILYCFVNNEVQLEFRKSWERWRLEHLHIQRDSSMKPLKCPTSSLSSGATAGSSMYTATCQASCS

[2] = molecular target: T2, human glucagon receptor (GCGR) (Homo sapiens, UniProt P47871); assay: cAMP assay on CHO-JumpIn cells stably transfected with human glucagon receptor (HitHunter cAMP); format: cell-based; settings: for EC50: Table 2, cAMP accumulation, CHO-JumpIn cells with human GCGR, buffer PBS, 0.1% BSA, 100 μM RO 20-1724, 20% serum, 1 hr at RT, value ± spread, read-out: EC50 GCGR;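 as to all read-outs here: peptides tested as 4-fold serial dilutions starting from a 2 µM solution, cells exposed 1 hr at RT in darkness, cAMP quantified against a cAMP standard curve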
T2 construct: expressed in transfected cells; host or cells: CHO-JumpIn cells, stably transfected
T2 sequence (P47871 26-477): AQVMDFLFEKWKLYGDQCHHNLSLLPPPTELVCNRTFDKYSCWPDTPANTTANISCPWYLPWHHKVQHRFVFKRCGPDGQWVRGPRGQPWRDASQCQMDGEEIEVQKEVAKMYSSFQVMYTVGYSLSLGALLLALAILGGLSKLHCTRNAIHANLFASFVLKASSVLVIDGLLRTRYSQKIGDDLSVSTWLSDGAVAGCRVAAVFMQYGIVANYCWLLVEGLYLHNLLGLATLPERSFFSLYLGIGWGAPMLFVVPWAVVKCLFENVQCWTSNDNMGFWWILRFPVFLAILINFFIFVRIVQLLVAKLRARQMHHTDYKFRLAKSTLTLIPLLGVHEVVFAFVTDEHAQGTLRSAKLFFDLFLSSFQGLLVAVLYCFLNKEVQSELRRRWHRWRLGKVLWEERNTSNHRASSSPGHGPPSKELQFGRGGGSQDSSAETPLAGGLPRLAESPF
Experimental: Briefly, a 2 μM solution of peptide was prepared, and 4-fold serial dilutions were made. 150 nL of the above titration was then dispensed into an Optiplate384 using an Echo555. […] The HitHunter® cAMP Assay kit calibration curve was prepared following the manufacturer’s protocol (DiscoveRx-90-0075L). 30,000 cells/well were added to the peptides, spun briefly at 500 rpm for 15 s and incubated at RT in the dark for 1 hr. The assay was developed as per the manufacturer’s instructions. cAMP accumulation due to GLP1R agonism or GCGR agonism was measured using an EnVision platereader (PerkinElmer), and calibrated using the cAMP standard curve. Data were analyzed using Assay Data Analyzer (ADA).

CSCC[C@H](NC(=O)[C@H](CC(C)C)NC(=O)[C@H](CO)NC(=O)[C@H](CC(=O)O)NC(=O)[C@H](CC(C)C)NC(=O)[C@H](Cc1ccc(O)cc1)NC(=O)[C@H](CCCCN)NC(=O)[C@H](CO)NC(=O)[C@H](Cc1ccc(O)cc1)NC(=O)[C@H](CC(=O)O)NC(=O)[C@H](CO)NC(=O)[C@@H](NC(=O)[C@H](Cc1ccccc1)NC(=O)[C@@H](NC(=O)CNC(=O)[C@H](CCC(N)=O)NC(=O)[C@H](CO)NC(=O)[C@@H](N)Cc1c[nH]cn1)[C@@H](C)O)[C@@H](C)O)C(=O)N[C@@H](C)C(=O)N[C@@H](CCC(N)=O)C(=O)N[C@@H](CC(=O)O)C(=O)N[C@@H](Cc1ccccc1)C(=O)N[C@H](C(=O)N[C@@H](CCC(N)=O)C(=O)N[C@@H](Cc1c[nH]c2ccccc12)C(=O)N[C@@H](CC(C)C)C(=O)N[C@@H](CCSC)C(=O)N[C@@H](CO)C(=O)N[C@H](C(N)=O)[C@@H](C)O)C(C)C [Peptide 5] (H-HSQGTFTSDYSKYLDSLMAQDFVQWLMST-NH2)
EC50 [1]: 0.133 ± 0.032 nM | EC50 [2]: 0.025 ± 0.001 nM

CC(C)C[C@H](NC(=O)[C@H](Cc1ccc(O)cc1)NC(=O)[C@H](CCCCN)NC(=O)[C@H](CO)NC(=O)[C@H](Cc1ccc(O)cc1)NC(=O)[C@H](CC(=O)O)NC(=O)[C@H](CO)NC(=O)[C@@H](NC(=O)[C@H](Cc1ccccc1)NC(=O)[C@@H](NC(=O)CNC(=O)[C@H](CCC(N)=O)NC(=O)[C@H](CO)NC(=O)[C@@H](N)Cc1c[nH]cn1)[C@@H](C)O)[C@@H](C)O)C(=O)N[C@@H](CC(=O)O)C(=O)N[C@@H](Cc1c[nH]c2ccccc12)C(=O)N[C@@H](CCCNC(=N)N)C(=O)N[C@@H](CCCNC(=N)N)C(=O)N[C@@H](C)C(=O)N[C@@H](CCC(N)=O)C(=O)N[C@@H](CC(=O)O)C(=O)N[C@@H](Cc1ccccc1)C(=O)N[C@H](C(=O)N[C@@H](CCC(N)=O)C(=O)N[C@@H](Cc1c[nH]c2ccccc12)C(=O)N[C@@H](CC(C)C)C(=O)N[C@@H](CC(C)C)C(=O)N[C@@H](CC(N)=O)C(=O)N[C@H](C(N)=O)[C@@H](C)O)C(C)C [Peptide 6]
EC50 [1]: 0.063 ± 0.034 nM | EC50 [2]: 0.032 ± 0.013 nM

CC[C@H](C)[C@H](NC(=O)[C@H](Cc1ccc(O)cc1)NC(=O)[C@H](CC(=O)O)NC(=O)[C@H](CO)NC(=O)[C@@H](NC(=O)[C@H](Cc1ccccc1)NC(=O)[C@@H](NC(=O)CNC(=O)[C@H](CCC(N)=O)NC(=O)[C@H](CO)NC(=O)[C@@H](N)Cc1c[nH]cn1)[C@@H](C)O)[C@@H](C)O)C(=O)N[C@@H](CCCCN)C(=O)N[C@@H](CC(C)C)C(=O)N[C@@H](CC(C)C)C(=O)N[C@@H](CC(=O)O)C(=O)N[C@@H](CO)C(=O)N[C@@H](CCCNC(=N)N)C(=O)N[C@@H](CCCNC(=N)N)C(=O)N[C@@H](C)C(=O)N[C@@H](CCC(N)=O)C(=O)N[C@@H](CC(=O)O)C(=O)N[C@@H](Cc1ccccc1)C(=O)N[C@H](C(=O)N[C@@H](CCC(N)=O)C(=O)N[C@@H](Cc1c[nH]c2ccccc12)C(=O)N[C@@H](CC(C)C)C(=O)N[C@@H](CCSC)C(=O)N[C@@H](CC(N)=O)C(=O)N[C@H](C(N)=O)[C@@H](C)O)C(C)C [Peptide 7] (H-HSQGTFTSDYIKLLDSRRAQDFVQWLMNT-NH2)
EC50 [1]: 78.3 ± 93.8 nM | EC50 [2]: 0.301 ± 0.216 nM

CC[C@H](C)[C@H](NC(=O)[C@H](CC(C)C)NC(=O)[C@H](Cc1c[nH]c2ccccc12)NC(=O)[C@H](CCC(N)=O)NC(=O)[C@@H](NC(=O)[C@H](Cc1ccccc1)NC(=O)[C@H](CC(=O)O)NC(=O)[C@H](CCC(N)=O)NC(=O)[C@H](C)NC(=O)[C@H](CCCNC(=N)N)NC(=O)[C@H](CCCNC(=N)N)NC(=O)[C@H](C)NC(=O)[C@H](CC(=O)O)NC(=O)[C@H](CC(C)C)NC(=O)[C@H](Cc1ccc(O)cc1)NC(=O)[C@H](CCCCN)NC(=O)[C@H](CO)NC(=O)[C@H](Cc1ccc(O)cc1)NC(=O)[C@H](CC(=O)O)NC(=O)[C@H](CO)NC(=O)[C@@H](NC(=O)[C@H](Cc1ccccc1)NC(=O)[C@@H](NC(=O)CNC(=O)[C@H](CCC(N)=O)NC(=O)[C@H](CO)NC(=O)[C@@H](N)Cc1c[nH]cn1)[C@@H](C)O)[C@@H](C)O)C(C)C)C(=O)N[C@@H](CCCNC(=N)N)C(=O)N[C@H](C(N)=O)[C@@H](C)O [Peptide 8]
EC50 [1]: 0.017 ± 0.001 nM | EC50 [2]: 0.038 ± 0.01 nM

CSCC[C@H](NC(=O)[C@H](CC(C)C)NC(=O)[C@H](Cc1c[nH]c2ccccc12)NC(=O)[C@H](CCC(N)=O)NC(=O)[C@@H](NC(=O)[C@H](Cc1ccccc1)NC(=O)[C@H](CC(=O)O)NC(=O)[C@H](Cc1ccc(O)cc1)NC(=O)[C@H](C)NC(=O)[C@H](CCCNC(=N)N)NC(=O)[C@H](CC(C)C)NC(=O)[C@H](CCC(=O)O)NC(=O)[C@H](CC(=O)O)NC(=O)[C@H](CC(C)C)NC(=O)[C@H](Cc1ccc(O)cc1)NC(=O)[C@H](CCCCN)NC(=O)[C@H](CO)NC(=O)[C@H](Cc1ccc(O)cc1)NC(=O)[C@H](CC(=O)O)NC(=O)[C@H](CO)NC(=O)[C@@H](NC(=O)[C@H](Cc1ccccc1)NC(=O)[C@@H](NC(=O)CNC(=O)[C@H](CCC(N)=O)NC(=O)[C@H](CO)NC(=O)[C@@H](N)Cc1c[nH]cn1)[C@@H](C)O)[C@@H](C)O)C(C)C)C(=O)N[C@@H](CC(N)=O)C(=O)N[C@H](C(N)=O)[C@@H](C)O [Peptide 10] (H-HSQGTFTSDYSKYLDELRAYDFVQWLMNT-NH2)
EC50 [1]: 0.038 ± 0.009 nM | EC50 [2]: 0.057 ± 0.021 nM

CC(C)C[C@H](NC(=O)[C@H](Cc1ccc(O)cc1)NC(=O)[C@H](CCCCN)NC(=O)[C@H](CO)NC(=O)[C@H](Cc1ccc(O)cc1)NC(=O)[C@H](CC(=O)O)NC(=O)[C@H](CO)NC(=O)[C@@H](NC(=O)[C@H](Cc1ccccc1)NC(=O)[C@@H](NC(=O)CNC(=O)[C@H](CCC(N)=O)NC(=O)[C@H](CO)NC(=O)[C@@H](N)Cc1c[nH]cn1)[C@@H](C)O)[C@@H](C)O)C(=O)N[C@@H](CC(=O)O)C(=O)N[C@@H](CO)C(=O)N[C@@H](CCCNC(=N)N)C(=O)N[C@@H](CCCNC(=N)N)C(=O)N[C@@H](C)C(=O)N[C@@H](Cc1c[nH]cn1)C(=O)N[C@@H](CC(=O)O)C(=O)N[C@@H](Cc1ccccc1)C(=O)N[C@H](C(=O)N[C@@H](CCC(N)=O)C(=O)N[C@@H](Cc1c[nH]c2ccccc12)C(=O)N[C@@H](CC(C)C)C(=O)N[C@@H](CC(C)C)C(=O)N[C@@H](CC(N)=O)C(=O)N[C@H](C(N)=O)[C@@H](C)O)C(C)C [Peptide 11] (H-HSQGTFTSDYSKYLDSRRAHDFVQWLLNT-NH2)
EC50 [1]: 0.018 ± 0.001 nM | EC50 [2]: 0.018 ± 0.005 nM

CC[C@H](C)[C@H](NC(=O)[C@H](CC(C)C)NC(=O)[C@H](Cc1c[nH]c2ccccc12)NC(=O)[C@H](CCC(N)=O)NC(=O)[C@@H](NC(=O)[C@H](Cc1ccccc1)NC(=O)[C@H](CC(=O)O)NC(=O)[C@H](CCC(N)=O)NC(=O)[C@H](C)NC(=O)[C@H](CCCNC(=N)N)NC(=O)[C@H](CCCNC(=N)N)NC(=O)[C@H](CO)NC(=O)[C@H](CC(=O)O)NC(=O)[C@H](CC(C)C)NC(=O)[C@H](Cc1ccc(O)cc1)NC(=O)[C@H](CCCCN)NC(=O)[C@H](CO)NC(=O)[C@H](Cc1ccc(O)cc1)NC(=O)[C@H](CC(=O)O)NC(=O)[C@H](CO)NC(=O)[C@@H](NC(=O)[C@H](Cc1ccccc1)NC(=O)[C@@H](NC(=O)CNC(=O)[C@H](CCC(N)=O)NC(=O)[C@H](CO)NC(=O)[C@@H](N)Cc1c[nH]cn1)[C@@H](C)O)[C@@H](C)O)C(C)C)C(=O)N[C@@H](CC(N)=O)C(=O)N[C@@H](Cc1ccc(O)cc1)C(N)=O [Peptide 13]
EC50 [1]: 0.039 ± 0.008 nM | EC50 [2]: 0.078 ± 0.05 nM

CSCC[C@H](NC(=O)[C@H](CO)NC(=O)[C@H](C)N)C(=O)N[C@@H](Cc1ccccc1)C(=O)N[C@H](C(=O)N[C@@H](Cc1ccccc1)C(=O)N[C@@H](Cc1ccccc1)C(=O)N[C@@H](CO)C(=O)N[C@@H](CC(=O)O)C(=O)N[C@@H](Cc1ccc(O)cc1)C(=O)N[C@@H](CO)C(=O)N[C@@H](CCCCN)C(=O)N[C@@H](Cc1ccc(O)cc1)C(=O)N[C@@H](CC(C)C)C(=O)N[C@@H](CC(=O)O)C(=O)N[C@@H](CO)C(=O)N[C@@H](CCCNC(=N)N)C(=O)N[C@@H](CCCNC(=N)N)C(=O)N[C@@H](C)C(=O)N[C@@H](CCC(N)=O)C(=O)N[C@@H](CC(=O)O)C(=O)N[C@@H](Cc1ccccc1)C(=O)N[C@H](C(=O)N[C@@H](CCC(N)=O)C(=O)N[C@@H](Cc1c[nH]c2ccccc12)C(=O)N[C@@H](CC(C)C)C(=O)N[C@@H](CCSC)C(=O)N[C@@H](CC(C)C)C(=O)N[C@H](C(N)=O)[C@@H](C)O)C(C)C)[C@@H](C)O [Peptide 15] (H-ASMFTFFSDYSKYLDSRRAQDFVQWLMLT-NH2; N-terminus assumed)
EC50 [1]: > 200 nM | EC50 [2]: > 20 nM | activation of the receptors (in words) ([2]; both receptors (GCGR and GLP1R) not activated): did not activate

CSCC[C@H](NC(=O)[C@H](CC(C)C)NC(=O)[C@H](Cc1c[nH]c2ccccc12)NC(=O)[C@H](CCC(N)=O)NC(=O)[C@@H](NC(=O)[C@H](Cc1ccccc1)NC(=O)[C@H](CC(=O)O)NC(=O)[C@H](CCC(N)=O)NC(=O)[C@H](C)NC(=O)[C@H](CCCNC(=N)N)NC(=O)[C@H](CCCNC(=N)N)NC(=O)[C@H](CO)NC(=O)[C@H](CC(=O)O)NC(=O)[C@H](CC(C)C)NC(=O)[C@H](Cc1ccc(O)cc1)NC(=O)[C@H](Cc1ccc(O)cc1)NC(=O)[C@H](Cc1ccc(O)cc1)NC(=O)[C@H](Cc1ccc(O)cc1)NC(=O)[C@H](CC(=O)O)NC(=O)[C@H](Cc1c[nH]cn1)NC(=O)[C@H](CC(C)C)NC(=O)[C@H](Cc1ccccc1)NC(=O)[C@@H](NC(=O)CNC(=O)[C@H](CCC(N)=O)NC(=O)[C@H](CO)NC(=O)[C@@H](N)Cc1c[nH]cn1)[C@@H](C)O)C(C)C)C(=O)N[C@@H](CC(=O)O)C(=O)N[C@H](C(N)=O)[C@@H](C)O [Peptide 17] (H-HSQGTFLHDYYYYLDSRRAQDFVQWLMDT-NH2)
EC50 [1]: > 200 nM | EC50 [2]: 0.527 ± 0.315 nM
